In ChEMBL document CHEMBL1201862, “PubChem BioAssay data set” (2004):
Several values for one entry are separate records, joined by “and”; a condition that tells them apart may be missing. Identical values can stand only once. Activity calls are given as the source filed them.

Key:
[1] = target: T1, Corticotropin-releasing factor receptor 2/Corticotropin-releasing factor-binding protein (Homo sapiens, UniProt P24387+Q13324); test: activators of CRF receptor 2 with binding protein – uHTS hits, confirmation (AID 602473); format: functional; conditions: read-out: EC50_Mean
T1 sequence (Q13324 whole entry): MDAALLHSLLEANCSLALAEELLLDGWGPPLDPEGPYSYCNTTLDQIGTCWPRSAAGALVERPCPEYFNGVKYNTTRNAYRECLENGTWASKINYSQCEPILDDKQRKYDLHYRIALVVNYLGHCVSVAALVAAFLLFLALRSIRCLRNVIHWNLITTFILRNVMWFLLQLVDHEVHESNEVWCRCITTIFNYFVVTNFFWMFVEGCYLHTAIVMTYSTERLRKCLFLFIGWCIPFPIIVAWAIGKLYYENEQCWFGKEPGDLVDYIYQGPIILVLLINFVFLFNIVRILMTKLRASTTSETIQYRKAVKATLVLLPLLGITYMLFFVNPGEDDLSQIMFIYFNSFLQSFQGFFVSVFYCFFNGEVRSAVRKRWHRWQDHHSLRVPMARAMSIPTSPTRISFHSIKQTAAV
T1 sequence (P24387 whole entry): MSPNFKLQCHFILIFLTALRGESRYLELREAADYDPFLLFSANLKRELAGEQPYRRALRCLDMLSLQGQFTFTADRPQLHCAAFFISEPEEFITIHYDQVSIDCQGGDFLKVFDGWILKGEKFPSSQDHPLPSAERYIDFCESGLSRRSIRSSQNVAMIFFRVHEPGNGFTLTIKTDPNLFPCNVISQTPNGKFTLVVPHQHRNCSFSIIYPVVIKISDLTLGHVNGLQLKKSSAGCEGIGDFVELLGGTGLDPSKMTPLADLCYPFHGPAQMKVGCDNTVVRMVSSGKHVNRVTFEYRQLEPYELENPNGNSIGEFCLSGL

Cytochrome P450 3A4 = Cytochrome P450 3A4 (Homo sapiens, UniProt P08684);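 also: CYP3A4 tested as one member of a cytochrome P450 panel screen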
Cytochrome P450 3A4, sequence (P08684 whole entry): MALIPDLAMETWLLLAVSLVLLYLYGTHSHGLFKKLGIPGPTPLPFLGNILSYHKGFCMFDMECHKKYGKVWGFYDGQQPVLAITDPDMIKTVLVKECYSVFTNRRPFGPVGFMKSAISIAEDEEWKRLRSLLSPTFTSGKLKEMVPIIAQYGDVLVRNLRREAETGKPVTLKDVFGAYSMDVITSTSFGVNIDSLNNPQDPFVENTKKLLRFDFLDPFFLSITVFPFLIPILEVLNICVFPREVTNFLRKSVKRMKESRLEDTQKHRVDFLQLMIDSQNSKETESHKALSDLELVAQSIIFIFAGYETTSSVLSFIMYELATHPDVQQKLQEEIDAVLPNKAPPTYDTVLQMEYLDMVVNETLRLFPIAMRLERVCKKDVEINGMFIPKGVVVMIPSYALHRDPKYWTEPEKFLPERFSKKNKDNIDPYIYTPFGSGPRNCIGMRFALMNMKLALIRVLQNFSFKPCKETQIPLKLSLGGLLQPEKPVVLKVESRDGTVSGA

Cytochrome P450 2C9 = Cytochrome P450 2C9 (Homo sapiens, UniProt P11712)
Cytochrome P450 2C9, sequence (P11712 whole entry): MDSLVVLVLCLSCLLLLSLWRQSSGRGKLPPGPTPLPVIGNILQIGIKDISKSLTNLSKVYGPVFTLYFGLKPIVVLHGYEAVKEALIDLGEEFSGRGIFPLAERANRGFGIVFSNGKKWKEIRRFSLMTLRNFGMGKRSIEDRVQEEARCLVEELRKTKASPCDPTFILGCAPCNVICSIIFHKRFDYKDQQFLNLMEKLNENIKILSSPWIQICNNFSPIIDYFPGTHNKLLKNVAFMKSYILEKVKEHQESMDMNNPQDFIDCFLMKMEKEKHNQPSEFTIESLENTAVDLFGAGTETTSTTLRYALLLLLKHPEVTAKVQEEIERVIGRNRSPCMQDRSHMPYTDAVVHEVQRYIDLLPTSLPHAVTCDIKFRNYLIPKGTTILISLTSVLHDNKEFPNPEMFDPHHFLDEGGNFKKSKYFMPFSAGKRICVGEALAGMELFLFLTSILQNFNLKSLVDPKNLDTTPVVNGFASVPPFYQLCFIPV

Cytochrome P450 1A2 = target: T2, Cytochrome P450 1A2 (Homo sapiens, UniProt P05177);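 also: PubChem cytochrome P450 panel assay, CYP1A2 panel member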
T2 sequence (P05177 whole entry): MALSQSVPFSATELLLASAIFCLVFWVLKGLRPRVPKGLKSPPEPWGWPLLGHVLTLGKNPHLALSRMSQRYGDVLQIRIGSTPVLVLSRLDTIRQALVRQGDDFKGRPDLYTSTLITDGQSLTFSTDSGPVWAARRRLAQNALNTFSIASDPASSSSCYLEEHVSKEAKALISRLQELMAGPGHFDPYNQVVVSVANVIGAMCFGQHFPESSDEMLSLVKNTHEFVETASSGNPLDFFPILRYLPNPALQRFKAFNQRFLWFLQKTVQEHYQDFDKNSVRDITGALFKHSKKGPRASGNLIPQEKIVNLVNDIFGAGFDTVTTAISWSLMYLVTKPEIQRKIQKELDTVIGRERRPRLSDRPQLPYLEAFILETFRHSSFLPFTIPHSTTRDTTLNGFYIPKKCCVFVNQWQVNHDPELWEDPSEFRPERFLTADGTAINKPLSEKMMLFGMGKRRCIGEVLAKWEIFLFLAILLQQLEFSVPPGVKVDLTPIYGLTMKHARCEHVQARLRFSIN

[2] = cytotoxicity toward NIH3T3 fibroblasts, dose response, counter-screen, cell-based, ATP luminescence, mouse fibroblasts (AID 2010); format: functional;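 also: cells exposed to compound for about 90 hours before reading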
[3] = inhibitors of intracellular T. cruzi replication, confirmation, NIH3T3 host cells, beta-gal luminescence (AID 2044); format: functional, cell-based;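 also: intracellular parasites grown in NIH/3T3 mouse fibroblasts as host cells; luminescent beta-galactosidase reporter signal from transgenic T. cruzi replicating inside host cells; inhibitors lower the luminescence signal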
[4] = test system: Streptococcus sp. 'group A'; test: growth inhibition of control SK(-) GAS strain, dose response, counter-screen for streptokinase expression inhibitor project, luminescence, kanamycin, BacTiterGlo, confirmation (AID 1900); format: functional, organism-based
Streptococcus = test: Group A Streptococcus viability loss, dose response, counter-screen for streptokinase expression inhibitor project, luminescence, BacTiterGlo (AID 1915); format: functional, organism-based;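 also: potency for reduction of bacterial viability or growth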

CC(C)C[C@H]1CN=C(Nc2ccccc2)N1CCc1cccc(F)c1
EC50 [1]: 6.43 µM (active)

CCc1ccc(OCCOCC(O)CNC(C)(C)C)cc1 (stereo unspecified)
EC50 [1]: > 53 µM (inactive)

O=C(NCCCN1CCc2ccccc2C1)C1CCN(S(=O)(=O)N2CCCC2)CC1
AC50 (Cytochrome P450 3A4): 20 µM (inconclusive)

CC1CC(C)CN(CCCNC(=O)C2CCCN(c3nnc(N4CCCC4=O)s3)C2)C1 (stereo unspecified)
AC50 (Cytochrome P450 3A4): 28.2 µM (inconclusive)

COc1ccc2c3c([nH]c2c1)C(C)=NCC3
AC50 (Cytochrome P450 3A4): 2.51 µM (inconclusive)

O=c1c(-c2ccccc2)nc2cnc(Oc3ccccc3)nc2n1Cc1cccs1
AC50 (Cytochrome P450 2C9): 3.16 µM (inconclusive)
AC50 (Cytochrome P450 1A2): 2.51 µM (inconclusive)

Cc1ccc2nc(NC(=O)C3CCN(S(=O)(=O)c4cc([N+](=O)[O-])ccc4Cl)CC3)sc2c1
EC50 [2]: > 60 µM (not active)
EC50 [3]: 0.528 µM (active)

Cn1ncc(C#N)c1NC(=O)C1CC(c2ccc(Cl)cc2)=NO1 (stereo unspecified)
AC50 (Cytochrome P450 2C9): 12.6 µM (inconclusive)
AC50 (Cytochrome P450 3A4): 20 µM (inconclusive)
AC50 (Cytochrome P450 1A2): 31.6 µM (inconclusive)

CCOC(=O)CC(NC(=O)c1ccc(C)cc1)c1ccc(C)cc1 (stereo unspecified)
AC50 (Cytochrome P450 3A4): 25.1 µM (inconclusive)

O[C@H](CCCN1CCN(c2ncc(F)cn2)CC1)c1ccc(F)cc1
AC50 (Cytochrome P450 2C9): 12.6 µM (inconclusive)
AC50 (Cytochrome P450 1A2): 31.6 µM (inconclusive)

O=C(Nc1cccnc1Cl)C1c2ccccc2Oc2ccccc21
AC50 (Cytochrome P450 3A4): 14.1 µM (inconclusive)
AC50 (Cytochrome P450 1A2): 3.16 µM (inconclusive)

CCOc1cc(-c2nc(-c3cc([N+](=O)[O-])ccc3C)c(-c3ccccc3)[nH]2)ccc1O
EC50 [2]: > 60 µM (inconclusive)
EC50 [3]: 2.7 µM (active)

COc1ccc(OC)c(Nc2nc(-c3sc(NC(=O)c4ccccc4)nc3C)cs2)c1
AC50 (Cytochrome P450 3A4): 28.2 µM (inconclusive)

N#Cc1cc(C(=O)c2ccccc2O)cn(-c2ccc(Cl)cc2)c1=O
EC50 [1]: > 53 µM (inactive)

C=CCSc1nnc(NC(=O)COc2ccc3ccccc3c2)s1
AC50 (Cytochrome P450 2C9): 8.91 µM (inconclusive)

CC(C)(C)NS(=O)(=O)c1ccc(NS(=O)(=O)c2ccc(F)cc2)cc1
AC50 (Cytochrome P450 3A4): 15.8 µM (inconclusive)

N[C@H](Cc1ccc(N(CCCl)CCCl)cc1)C(=O)O
AC50 (Cytochrome P450 1A2): 15.8 µM (inconclusive)

COc1ccccc1CN1CC[C@@]2(CCCN(C(=O)c3ccco3)C2)C1
AC50 (Cytochrome P450 1A2): 39.8 µM (inconclusive)

CCC1CCCCN1S(=O)(=O)c1ccc(C(=O)Nc2nnc(C3=COCCO3)o2)cc1 (stereo unspecified)
EC50 [4]: 4.61 µM (active)
EC50 (Streptococcus): 10.7 µM (active)

Cc1ccc(/C=N\NC(=O)c2ccc(Cn3cc(Br)c([N+](=O)[O-])n3)o2)o1
EC50 [2]: > 60 µM (not active)
EC50 [3]: 0.878 µM (active)

Cc1ccc(/N=N\c2ccc(N)cc2C)c(S(N)(=O)=O)c1
AC50 (Cytochrome P450 3A4): 3.98 µM (inconclusive)

Cc1ccccc1-c1nc(NC2CCNCC2)c2ccccc2n1
AC50 (Cytochrome P450 1A2): 20 µM (inconclusive)

Cc1cccc(OCCCCCn2ccnc2)c1
EC50 [2]: > 30 µM (not active)
EC50 [3]: 0.443 µM (active)

N#Cc1ccc(CN2CCCC3(CCN(C(=O)Oc4ccccc4)CC3)C2)cc1
AC50 (Cytochrome P450 2C9): 39.8 µM (inconclusive)
AC50 (Cytochrome P450 3A4): 15.8 µM (inconclusive)

O=C(c1ccc2c(=O)n(CC3CCCO3)c(=S)[nH]c2c1)N1CCN(c2ccccc2)CC1 (stereo unspecified)
AC50 (Cytochrome P450 2C9): 7.94 µM (inconclusive)
AC50 (Cytochrome P450 3A4): 7.08 µM (inconclusive)

CC(C(=O)Nc1ccccc1C(=O)O)n1c(C(F)(F)F)nc2ccccc21 (stereo unspecified)
EC50 [2]: > 60 µM (inconclusive)
EC50 [3]: 9.95 µM (active)

CCN(CC)c1ccc(N2C(=O)/C(=C\c3cccnc3)SC2=S)cc1
AC50 (Cytochrome P450 1A2): 1.41 µM (inconclusive)

O=C(O)CCC(=O)N1CCN(c2ccccn2)CC1
AC50 (Cytochrome P450 2C9): 0.891 µM (inconclusive)
AC50 (Cytochrome P450 3A4): 3.55 µM (inconclusive)

C=CCn1c(NCc2ccccc2)nc2ccccc21
AC50 (Cytochrome P450 3A4): 25.1 µM (inconclusive)

O=C(Nc1ccccc1)Nc1ccccc1-n1ccnc1
EC50 [2]: > 60 µM (not active)
EC50 [3]: 2.53 µM (active)

Cc1onc(C(=O)/C=C/N(C)C)c1C(=O)Nc1nccs1
AC50 (Cytochrome P450 1A2): 0.631 µM (inconclusive)

S=C(Nc1ccc2c(c1)Cc1ccccc1-2)Nc1ccc2c(c1)Cc1ccccc1-2
AC50 (Cytochrome P450 3A4): 3.98 µM (inconclusive)

Cc1ccc(S(=O)(=O)O[C@H]2C[C@@H](C(C)(C)C)CC[C@@H]2c2ccccc2)cc1
AC50 (Cytochrome P450 3A4): 2 µM (inconclusive)

CS(=O)(=O)N1CC(C(=O)NC2CC2)Oc2ccc(Cl)cc21 (stereo unspecified)
AC50 (Cytochrome P450 2C9): 10 µM (inconclusive)
AC50 (Cytochrome P450 3A4): 25.1 µM (inconclusive)

CC1(C)CSC(NCc2ccccc2)=N1
EC50 [1]: 2.84 µM (active)

O=C(c1cc(-c2ccccc2)nc2ccccc12)N1CCC2(CC1)OCCO2
AC50 (Cytochrome P450 3A4): 25.1 µM (inconclusive)

O=C1S/C(=C/c2ccc(N3CCOCC3)o2)C(=O)N1Cc1ccc(F)cc1
AC50 (Cytochrome P450 3A4): 7.94 µM (inconclusive)
EC50 [1]: 5.79 µM (active)

C/C(=N/NC(=O)c1ccc(C)s1)c1cccc(NC(=O)COc2ccc(Cl)cc2C)c1
AC50 (Cytochrome P450 3A4): 1.12 µM (inconclusive)

N[C@H](CCCP(=O)(O)O)C(=O)O
AC50 (Cytochrome P450 1A2): 25.1 µM (inconclusive) and 31.6 µM (inconclusive)

CCCCN1C(=O)NC(=O)/C(=C(/C)NCCCN(CC)CC)C1=O
EC50 [2]: > 60 µM (not active)
EC50 [3]: 1.66 µM (active)

Cc1noc(C)c1-c1ccc2ncnc(NC3CCNCC3)c2c1
AC50 (Cytochrome P450 1A2): 31.6 µM (inconclusive)

Cc1cnc(CNc2ncncc2-c2cccc(NS(C)(=O)=O)c2)cn1
AC50 (Cytochrome P450 1A2): 31.6 µM (inconclusive)

CC(C)N1CCc2c(sc(NC(=O)CCc3ccccc3)c2C(N)=O)C1
EC50 [1]: > 53 µM (inactive)

CC(C)N(CCNC(=O)c1nn(Cc2ccccc2)c(=O)c2ccccc12)C(C)C
EC50 [2]: > 60 µM (not active)
EC50 [3]: 1.46 µM (active)

NNS(=O)(=O)c1cc(C(=O)O)cc(C(=O)O)c1
AC50 (Cytochrome P450 1A2): 0.001 µM (inconclusive)

N#Cc1c(Nc2cccc(F)c2)sc2c(O)cc(O)nc12
EC50 [4]: 1.19 µM (active)
EC50 (Streptococcus): 5.71 µM (active)

CCOC(=O)N1CCN(C(=O)CC(C(=O)N2CCc3ccccc32)n2ccnc2)CC1 (stereo unspecified)
EC50 [2]: > 60 µM (not active)
EC50 [3]: 1.82 µM (active)

CC(C)(C)C(=O)Nc1sc2c(c1C#N)CCN(Cc1ccccc1)C2
EC50 [1]: 10.2 µM (active)

CCN(CC)P(=O)(Nc1ccc(SC(F)F)cc1)c1ccc(N(C)C)cc1NC(=O)c1ccco1 (stereo unspecified)
EC50 [2]: > 60 µM (not active)
EC50 [3]: 1.99 µM (active)

COc1cccc(-c2cncnc2NCCN2CCOCC2)c1
AC50 (Cytochrome P450 3A4): 3.16 µM (inconclusive)
AC50 (Cytochrome P450 1A2): 15.8 µM (inconclusive)

COc1ccc(Br)cc1S(=O)(=O)Nc1nc[nH]n1
EC50 [4]: > 150 µM (not active)
EC50 (Streptococcus): > 150 µM (not active)

COc1ccc(C(=O)c2ccc(N3CCN(C(=O)c4ccc(F)cc4)CC3)c(F)c2)cc1Br
EC50 [2]: 8.95 µM (active)
EC50 [3]: 2.37 µM (active)

COc1ccccc1-c1cncnc1N1CCN(C)CC1
AC50 (Cytochrome P450 1A2): 12.6 µM (inconclusive)

Cc1noc(N)c1C(=O)Nc1ccc(F)cc1
AC50 (Cytochrome P450 2C9): 3.98 µM (inconclusive)

COc1ccc(-c2[nH]nc(C)c2-c2ccc(Cl)cc2)c(O)c1
EC50 [4]: 9.86 µM (active)
EC50 (Streptococcus): 11.1 µM (active)

COc1ccc(C(=O)NC2CCN(C(S)=Nc3cccc(C)c3)CC2)cc1
AC50 (Cytochrome P450 2C9): 25.1 µM (inconclusive)

CCN1CCc2c(sc(NC(=S)NC(=O)c3ccccc3)c2C#N)C1
AC50 (Cytochrome P450 3A4): 20 µM (inconclusive)
AC50 (Cytochrome P450 1A2): 14.1 µM (inconclusive)

Cn1cnc([N+](=O)[O-])c1Sc1nc(N)nc2c1ncn2Cc1ccccc1
AC50 (Cytochrome P450 1A2): 3.16 µM (inconclusive)

CC(C)CN1CCC2(CC1)CCN(C(=O)c1cc(C(F)(F)F)cc(C(F)(F)F)c1)CC2
AC50 (Cytochrome P450 2C9): 12.6 µM (inconclusive)
